Assay [1] concerns Tau phosphorylation at Ser396 (pSer396), SH-SY5Y cells. Nature of the assay: Tau phosphorylation at Ser396 (pSer396) in SH-SY5Y cells, ELISA/western blot.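 Further: cell lysates probed for reduced Tau pSer396 via ELISA (colorimetric) or western blot (chemiluminescence), both with one shared pSer396 antibody, EC50 for lowering phosphorylation.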 The format is cell-based, human. To be noted: Homo sapiens; SH-SY5Y cells, overnight (16-18 h); read-out: pSer396 Tau EC50.
The next assay has as its target GSK3β kinase (Homo sapiens (Human), UniProt P49841). Nature of the assay: GSK3β kinase assay (Ser/Thr 09 peptide Z-lyte, FRET).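 Further: Coumarin/fluorescein emission ratio converted to percent phosphorylation against unphosphorylated (0%) and phosphorylated (100%) controls, 1 h compound incubation at room temperature, 11-point threefold dilutions from 10 µM, run in duplicate.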 Particulars: method text calls the value IC50. The format is biochemical.
The next assay has as its target DYRK1A kinase (Homo sapiens (Human), UniProt Q13627). Nature of the assay: DYRK1A kinase assay (Ser/Thr 18 peptide Z-lyte, FRET).
Assay [2] concerns SW480 colon carcinoma cells. Nature of the assay: Cell viability assay (CellTiter-Glo) in SW480 cells.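 On all read-outs here: SW480 cells stably carrying an Sp5-luciferase TCF/LEF reporter, luminescent ATP signal as viability measure, DMSO-treated cells as control.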 The format is cell-based, human. Particulars: Homo sapiens; for EC50: 96 h, cell viability, SW480 cells, four days, CellTiter-Glo; for inhibition at 10 µM: SW480, read-out: percent inhibition at 10 μM. Background: In ATP-based viability assays light output follows the ATP content of the culture.

In assay [3] the test system is Wnt activity (Sp5-Luc reporter in SW480 colon carcinoma cells). Nature of the assay: Wnt activity screening assay (Sp5-Luc reporter gene assay). It is filed as cell-based, human. To be noted: Homo sapiens; for EC50: Sp5-Luc reporter, SW480 cells, 36 to 48 hours; for inhibition at 10 µM: SW480, read-out: percent inhibition at 10 μM. The essentials: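 SW480 cells stably carrying an Sp5 promoter (eight TCF/LEF sites)-firefly luciferase reporter were plated in DMEM with 1% FBS and treated with a 10-point, 1:3 dilution series from 10 μM (0.1% DMSO) for 36 to 48 h at 37° C. Luminescence was normalized to DMSO controls, and EC50 came from four-parameter nonlinear regression.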

In another assay the test system is IL-6. Nature of the assay: IL-6 inhibition in LPS-stimulated human peripheral blood mononuclear cells (HTRF). It is filed as cell-based. Particulars: Homo sapiens, PBMC; for EC50: IL-6, LPS-stimulated huPBMCs, HTRF. The essentials:
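Fresh human PBMCs (5000 cells/well, 1% FBS RPMI) preincubated with compound (10-point 1:3 series from 10 μM, 0.25% DMSO) 2 h at 37 °C, then stimulated with 50 ng/mL E. coli LPS for 22 h. IL-6 by HTRF 665/620 ratio; DMSO-normalized, EC50 from 4-parameter fit.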

The test system of assay [4] is LL29 cells (primary human fibroblasts derived from IPF patients), α-smooth muscle actin. Nature of the assay: Inhibition of fibrotic process: αSMA in TGF-β1-treated primary human fibroblasts from IPF patients (LL29 cells). The format is cell-based. Particulars: Homo sapiens, Fibroblast; for EC50: 96 h, % αSMA-positive LL29 cells, TGF-β1 20 ng/mL, 4 days. The gist of the method: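 IPF-patient lung fibroblasts (LL29) were stimulated with TGF-β1 (20 ng/mL) in 1% FBS medium with compound (11-point 1:2 series, 0.1% DMSO) for 4 days at 37 °C. Fixed cells were immunostained for αSMA and imaged, excluding SYTOX-positive dead cells. The % αSMA-positive cells was normalized to TGF-β1/DMSO control wells.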

[5] abbreviates: DYRK1A kinase, method text calls the value IC50.

Like-named read-outs stand apart in the source and are kept apart here.

Here are results for 13 compounds from patent publication US10604514B2, “6-(5-membered heteroaryl)isoquinolin-3-yl carboxamides and preparation and use thereof” (Samumed, LLC, priority 2017, dated 2020).

Chain of GSK3β kinase (P49841 whole entry): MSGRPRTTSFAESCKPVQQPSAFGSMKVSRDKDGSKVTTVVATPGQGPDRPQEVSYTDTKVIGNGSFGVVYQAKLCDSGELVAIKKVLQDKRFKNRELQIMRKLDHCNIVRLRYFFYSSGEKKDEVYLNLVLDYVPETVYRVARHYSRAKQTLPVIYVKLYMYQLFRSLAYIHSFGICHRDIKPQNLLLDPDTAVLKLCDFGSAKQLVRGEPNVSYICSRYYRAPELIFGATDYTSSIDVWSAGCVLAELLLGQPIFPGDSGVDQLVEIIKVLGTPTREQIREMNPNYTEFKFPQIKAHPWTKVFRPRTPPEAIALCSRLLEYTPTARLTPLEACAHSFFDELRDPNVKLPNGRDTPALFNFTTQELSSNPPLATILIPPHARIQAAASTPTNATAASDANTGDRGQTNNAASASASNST

As to `[2H]c1c([2H])c(C(=O)Nc2cc3cc(-c4cncn4C)ccc3cn2)c([2H])c([2H])c1OC([2H])([2H])[2H]` [Compound 88, 4-(Methoxy-d3)-N-(6-(1-methyl-1H-imidazol-5-yl)isoquinolin-3-yl) benzamide-2,3,5,6-d4], the EC50 in assay [1] is 16 nM; at GSK3β kinase it was 1010 nM; on DYRK1A kinase, 2 nM; in assay [2], 480 nM; in assay [3], 179 nM; in the assay with IL-6, 1200 nM. Besides, in assay [4], the EC50 was found to be 311 nM.
Regarding `[2H]c1c([2H])c(C(=O)Nc2cc3cc(-c4cncn4C)ccc3cn2)c([2H])c([2H])c1OC` [Compound 89, 4-Methoxy-N-(6-(1-methyl-1H-imidazol-5-yl)isoquinolin-3-yl)benzamide-2,3,5,6-d4], the EC50 is 594 nM in assay [1]; 533 nM on GSK3β kinase; 2 nM at DYRK1A kinase; 480 nM in assay [2]; 155 nM in assay [3]; 1050 nM in the assay with IL-6. The concentration for a half-maximal effect (EC50) in assay [4] turned out to be 190 nM.
Turning to `[2H]c1c([2H])c([2H])c(/C=C/C(=O)Nc2cc3cc(-c4cnc(C)n4C)ccc3cn2)c([2H])c1[2H]` [Compound 90, (E)-N-(6-(1,2-Dimethyl-1H-imidazol-5-yl)isoquinolin-3-yl)-3-(phenyl-2,3,4,5,6-d5)acrylamide], the half-maximal effective concentration (EC50) in assay [1] was found to be 171 nM; at GSK3β kinase, 388 nM; on DYRK1A kinase, 4 nM; in assay [2], 312 nM; in assay [3], 159 nM; in the assay with IL-6, 606 nM. Moreover, the EC50 in assay [4] is 299 nM.
With `[2H]/C(C(=O)Nc1cc2cc(-c3cnc(C)n3C)ccc2cn1)=C(/[2H])c1c([2H])c([2H])c([2H])c([2H])c1[2H]` [Compound 91, (E)-N-(6-(1,2-Dimethyl-1H-imidazol-5-yl)isoquinolin-3-yl)-3-(phenyl-2,3,4,5,6-d5)acrylamide-2,3-d2], the EC50 in assay [1] worked out at 68 nM; at GSK3β kinase it was 454 nM; on DYRK1A kinase, 5 nM; in assay [2] it was 314 nM; in assay [3], 197 nM; with IL-6, 679 nM. The compound also returned an EC50 in assay [4] of 289 nM.
With `[2H]C([2H])(C(=O)Nc1cc2cc(-c3cnc(C)n3C)ccc2cn1)c1ccc(F)cc1` [Compound 92, N-(6-(1,2-Dimethyl-1H-imidazol-5-yl)isoquinolin-3-yl)-2-(4-fluorophenyl) acetamide-2,2-d2], the EC50 in assay [1] turned out to be 769 nM; at GSK3β kinase, 66 nM; on DYRK1A kinase, 10 nM; in assay [2], 4080 nM; in assay [3], 3140 nM; in the assay on IL-6, 3180 nM. For the same compound, in assay [4], the 50% effective concentration (EC50) turned out to be 2710 nM.
For the compound `[2H]c1c([2H])c([2H])c(/C=C/C(=O)Nc2cc3cc(-c4cncn4C)ccc3cn2)c([2H])c1[2H]` [Compound 93, (E)-N-(6-(1-methyl-1H-imidazol-5-yl)isoquinolin-3-yl)-3-(phenyl-2,3,4,5,6-d5)acrylamide], the EC50 was found to be 259 nM in assay [1]; 238 nM at GSK3β kinase; 2 nM on DYRK1A kinase; 98 nM in assay [2]; 67 nM in assay [3]; 280 nM with IL-6. The compound also showed an EC50 in assay [4] of 145 nM.
As for `[2H]/C(C(=O)Nc1cc2cc(-c3cncn3C)ccc2cn1)=C(/[2H])c1c([2H])c([2H])c([2H])c([2H])c1[2H]` [Compound 94, (E)-N-(6-(1-Methyl-1H-imidazol-5-yl)isoquinolin-3-yl)-3-(phenyl-2,3,4,5,6-d5)acrylamide-2,3-d2], the EC50 was determined as 244 nM in assay [1]; 276 nM at GSK3β kinase; 2 nM at DYRK1A kinase; 104 nM in assay [2]; 88 nM in assay [3]; 319 nM in the assay with IL-6. The half-maximal effective concentration (EC50) in assay [4] is 125 nM.
Take `[2H]C([2H])(C(=O)Nc1cc2cc(-c3cncn3C)ccc2cn1)c1ccc(F)cc1` [Compound 95, 2-(4-Fluorophenyl)-N-(6-(1-methyl-1H-imidazol-5-yl)isoquinolin-3-yl) acetamide-2,2-d2]: the EC50 in assay [1] is 76 nM; on GSK3β kinase, 38 nM; on DYRK1A kinase it was 4 nM; in assay [2], 766 nM; in assay [3], 1070 nM; in the assay on IL-6, 339 nM. Further, the concentration giving a half-maximal response (EC50) in assay [4] came to 276 nM.
Consider `Cn1cc(-c2cc(F)c3cnc(NC(=O)[C@H]4CC[C@@H](N(C)C)CC4)cc3c2)cn1` [Compound 96, cis-4-(Dimethylamino)-N-(8-fluoro-6-(1-methyl-1H-pyrazol-4-yl)isoquinolin-3-yl)cyclohexane-1-carboxamide], for which the EC50 in assay [1] is over 10000 nM; on GSK3β kinase, 5420 nM; at DYRK1A kinase (setting [5]) it was 846 nM; in assay [2] it was over 10000 nM; in assay [3], over 10000 nM; in the assay with IL-6, over 10000 nM. In assay [4], this compound returned a 50% effective concentration (EC50) of over 10000 nM. In addition, the inhibition at 10 µM was determined as 2.3% in assay [2], 0% in assay [3], 3.6% with IL-6 (read-out: percent value in parentheses below EC50 >10) and 36% in assay [4] (read-out: percent inhibition at 10 μM).
As to `Cn1cc(-c2cc(F)c3cnc(NC(=O)[C@H]4CC[C@@H](N5CCOCC5)CC4)cc3c2)cn1` [Compound 97, cis-N-(8-Fluoro-6-(1-methyl-1H-pyrazol-4-yl)isoquinolin-3-yl)-4-morpholinocyclohexane-1-carboxamide], the concentration for a half-maximal effect (EC50) in assay [1] amounted to 184 nM; on GSK3β kinase, 20 nM; on DYRK1A kinase (setting [5]), 14 nM; in assay [2] it was 806 nM; in assay [3] it was 1470 nM; with IL-6 it was 365 nM. Also, the EC50 in assay [4] amounted to 200 nM.
Take `Cn1cc(-c2ccc3cnc(NC(=O)[C@H]4CC[C@H](N5CCCC5)CC4)cc3c2)nn1` [Compound 99, trans-N-(6-(1-Methyl-1H-1,2,3-triazol-4-yl)isoquinolin-3-yl)-4-(pyrrolidin-1-yl)cyclohexane-1-carboxamide]: the EC50 was determined as 208 nM in assay [1]; 8 nM on GSK3β kinase; 4 nM on DYRK1A kinase (setting [5]); 1080 nM in assay [2]; 589 nM in assay [3]; 1360 nM with IL-6. The compound further gave an EC50 in assay [4] of 72 nM.
Turning to `Cn1cc(-c2ccc3cnc(NC(=O)[C@H]4CC[C@H](N5CCOCC5)CC4)cc3c2)nn1` [Compound 100, trans-N-(6-(1-Methyl-1H-1,2,3-triazol-4-yl)isoquinolin-3-yl)-4-morpholinocyclohexane-1-carboxamide], the EC50 in assay [1] amounted to 113 nM; on GSK3β kinase, 11 nM; on DYRK1A kinase (setting [5]) it was 3 nM; in assay [2] it was 1530 nM; in assay [3] it was 720 nM; in the assay on IL-6, 2020 nM. In assay [4], this compound yielded an EC50 of 64 nM.
`Cc1ncc(-c2cc(F)c3cnc(NC(=O)[C@H]4CC[C@H](C(=O)N5CCN(C)CC5)CC4)cc3c2)o1` [Compound 101, trans-N-(8-fluoro-6-(2-methyloxazol-5-yl)isoquinolin-3-yl)-4-(4-methylpiperazine-1-carbonyl)cyclohexane-1-carboxamide]: the EC50 was 5400 nM in assay [1]; 1030 nM on GSK3β kinase; 22 nM at DYRK1A kinase (setting [5]); over 10000 nM in assay [2]; over 10000 nM in assay [3]; 3590 nM in the assay with IL-6. The EC50 in assay [4] was determined as 3070 nM. Besides, the inhibition at 10 µM turned out to be 18.8% in assay [2] and 6.3% in assay [3].

In general, EC50 refers to the concentration needed to bring the measured effect to its halfway point.
